Measured values taken from ChEMBL document CHEMBL5661955, “ASAP - In vitro cytotoxicity” (2024).
Several values for one entry are separate records, joined by “and”; a condition that tells them apart may be missing. Equal values may be shown once.

How the values were obtained:
[1] = Functional assay to measure dose dependent changes in cell viability from drug treatment in Vero E6 miRFP670 cells (cotreated with P-gp inhibitor, CP100356) that are infected with Dengue virus type 2 New Guinea C. […] Cytotoxicity is reported via via analysis of DAPI count using high-content imager. The assay has been performed by KU Leuven.; type: toxicity, cell-based, Vero C1008; details: chlorocebus sabaeus, p-gp concentration 500 nM
[2] = Functional CPE-based assay to measure dose dependent changes in cell viability from drug treatment in Vero E6 miRFP670 cells (cotreated with P-gp inhibitor, CP100356). Cells are treated with antiviral candidates that have been serially diluted. Cytotoxicity is reported via analysis of MTS assays in uninfected cells. The assay has been performed by KU Leuven.; type: toxicity, Vero C1008; details: chlorocebus sabaeus, p-gp concentration 500 nM
[3] = Functional metabolic assay to measure dose dependent changes in cell viability from drug treatment in Vero E6/TMPRSS2 cells (cotreated with P-gp inhibitor, Elacridar). […] Cytotoxicity is reported via measuring absorbance and analysis of MTT/MTS assays in uninfected cells. The assay has been performed by Icahn School of Medicine at Mount Sinai.; type: toxicity, cell-based, VeroE6/TMPRSS2; details: chlorocebus sabaeus, p-gp concentration 2 uM; for CC50: Vero E6/TMPRSS2 cells, with Elacridar (P-gp inhibitor, concentration not stated); for CC10: veroe6/tmprss2
[4] = Vero E6 miRFP670 cells, with CP100356 (P-gp inhibitor, concentration not stated)
[5] = with CP100356 (P-gp inhibitor, concentration not stated)

Row | SMILES | CC50 ([1]; vero c1008) | CC50 [2, 4] [µM] | CC50 ([2]; vero c1008) | CC50 [3] [µM] | CC50 [1, 5] [µM] | CC10 [3] [µM]
1 | O=C(NCC(F)F)[C@H](Nc1ccc2c(c1)CNC2)c1cc(Cl)cc(C2CC2)c1 | > 50 µM and 21.1 µM and 27.1 µM | > 50 | 46.9 µM and 47.6 µM | > 50 |  | 
2 | O=C(O)Cc1c[nH]c2cc(-c3cc(Cl)cc(NC(=O)OCc4ccccc4)c3)ccc12 |  | 32.1 |  |  | 18 | 
3 | O=C(Nc1cc(Cl)cc(-c2cnn(Cc3ccc(C(=O)O)cc3)c2)c1)OCc1ccccc1 |  | 35.5 |  |  | 24 | 
4 | FC(F)(F)Oc1cc(Cl)cc2c(Cc3ccc(-c4nnn[nH]4)cc3)c[nH]c12 |  | 30.6 |  |  | 11.1 | 
5 | Clc1cc(CNc2ccc3c(c2)CNC3)c2cn[nH]c2c1 |  | 29.8 |  |  | 21.4 | 
6 | O=C(Nc1ccc2c(c1)CNC2)c1cc(C(F)(F)F)cc2[nH]ccc12 |  | > 50 |  | > 50 | > 50 | > 50
7 | COC(=O)c1cc(Br)cc2c(Cc3ccc(-c4nnn[nH]4)cc3)c[nH]c12 |  | 36.9 |  |  | 9.83 | 
8 | O=C(Nc1ccc2c(c1)CNC2)c1cc(Br)cc2[nH]ncc12 |  | > 50 |  | > 50 | > 50 | > 50
9 | Cc1c(C(=O)Nc2cc([C@H]3CCOC3)ccn2)cc(C2CC2)n1C | 29.2 µM |  | 9.14 µM and > 50 µM | > 50 | > 50 | > 50
10 | N[C@H]1Cc2ccc(NC(=O)c3cc(Cl)cc4[nH]ncc34)cc2C1 |  | > 50 |  | > 50 | > 50 | > 50
11 | CN(c1ccc2c(c1)CNC2)[C@H](C(=O)NCC(F)F)c1cc(Cl)cc(C2CC2)c1 |  | 9.32 |  |  | 14.3 | 
12 | Cc1ncc(-c2cc(F)cc(C(=O)Nc3ccc4c(c3)CNC4)c2)o1 |  | 11.9 |  |  | 12.5 | 
13 | O=C(Nc1cc2c(cc1Br)CNC2)c1cc(Cl)cc2[nH]ncc12 |  | 1.85 |  |  | 13.5 | 
14 | O=C(Nc1ccc2c(c1)CNC2)c1cc(F)cc(-c2cn[nH]c2)c1 |  | > 50 |  |  | 37.2 | 
15 | N#Cc1cccc(-c2nc3c(C(=O)Nc4ccc5c(c4)CNC5)cc(F)cc3[nH]2)c1 |  | 29.2 |  |  | 20.7 | 
16 | O=C(Nc1cc2c(c(-c3c[nH]c(=O)c(F)c3)c1)CNC2)c1cc(F)cc2[nH]ncc12 |  | > 50 |  |  | > 50 | 
17 | O=C(Nc1ccc2c(c1)CN[C@H]2C[C@H](O)CO)c1cc(F)cc2[nH]ncc12 |  | > 50 |  |  | 31.2 | 
18 | O=C(NCCCn1ccnc1)[C@H](Nc1ccc2c(c1)CNC2)c1cc(Cl)cc(C2CC2)c1 |  | 11.5 |  |  | > 50 | 
19 | O=C1Cc2c(cccc2C(=O)Nc2ccc3c(c2)CCNCC3)N1 |  | > 50 |  |  | > 50 | 
20 | N#Cc1ccc(-c2nc3c(C(=O)Nc4ccc5c(c4)CNC5)cc(F)cc3[nH]2)cc1 |  | > 50 |  |  | > 50 | 
21 | Cc1c(C(=O)Nc2cc(-c3cccnc3)ccn2)cc(C2CC2)n1C | 11.9 µM | > 50 | 40.1 µM | > 50 | 18.9 | 13.062
22 | COc1cccc(-c2nc3c(C(=O)Nc4ccc5c(c4)CNC5)cc(F)cc3[nH]2)c1 |  | 2.86 |  |  | 5.1 | 
23 | CO[C@H]1C[C@H](n2ncc3c(C(=O)Nc4ccc5c(c4)CNC5)cc(Cl)cc32)C1 |  | 14 |  |  | 47.5 | 
24 | O=C(Nc1ccc2c(c1)CNC2)c1cc(Cl)cc2[nH]c(-c3c[nH]c(=O)c(Br)c3)nc12 |  | > 50 |  |  | 14.3 | 
25 | O=C(Nc1cnc2c(c1)CNC2)c1cc(F)cc2[nH]ncc12 |  | > 50 |  |  | > 50 | 

Row | SMILES | CC50 ([1]; vero c1008) | CC50 [2, 4] [µM] | CC50 ([2]; vero c1008) | CC50 [3] [µM] | CC50 [1, 5] [µM] | CC10 [3] [µM]
26 | O=C(NCC(F)F)[C@H](Nc1cc2c(cc1Br)CNC2)c1cc(Cl)cc(C2CC2)c1 |  | 5.82 |  |  | 6.39 | 
27 | O=C(Nc1ccc2c(c1)CN[C@H]2CC1CC1)c1cc(F)cc2[nH]ncc12 |  | 11.8 |  |  | 18.7 | 
28 | O=C1Nc2ccc(C(=O)Nc3ccc4c(c3)CNC4)cc2C1=O |  | > 50 |  |  | 25.7 | 
29 | COc1ccccc1-c1nc2c(C(=O)Nc3ccc4c(c3)CNC4)cc(F)cc2[nH]1 |  | > 50 |  |  | 15.6 | 
30 | CCCn1cc2c(C(=O)Nc3ccc4c(c3)CNC4)cc(Cl)cc2n1 |  | 17.4 |  |  | 21.5 | 
31 | CC(C)(C)OC(=O)N1Cc2ccc(N[C@H](C(=O)O)c3cc(Cl)cc4[nH]ncc34)cc2C1 |  | > 50 |  |  | 28.9 | 
32 | NCc1cccc(-c2csc3cc(C(=O)Nc4ccc5c(c4)CNC5)ccc23)c1 |  | 5.68 |  |  | 3.57 | 
33 | O=C(Nc1ccc2c(c1)CNC2)c1cc(F)cc2[nH]c(-c3cccc(F)c3)nc12 |  | 3.69 |  |  | 2.47 | 
34 | N#Cc1cc2c(cc1NC(=O)c1cc(F)cc3[nH]ncc13)CNC2 |  | > 50 |  |  | > 50 | 
35 | O=C(Nc1ccc2c(c1)CNC2)c1cc(F)cc(-c2cccnc2)c1 |  | 15.4 |  |  | > 50 | 
36 | Cc1cccc(-c2nc3c(C(=O)Nc4ccc5c(c4)CNC5)cc(F)cc3[nH]2)c1 |  | 2.76 |  |  | 0.838 | 
37 | O=C(Nc1ccc2c(c1)CNC2)c1cccc2c1[C@]1(CCNC1)C(=O)N2 |  | > 50 |  |  | > 50 | 
38 | Cc1ncc(-c2cc(F)cc(C(=O)Nc3ccc4c(c3)CNC4)c2)s1 |  | 23.1 |  |  | > 50 | 
39 | O=C(NCC(F)F)[C@H](Nc1ccc2c(c1)CNC2)c1cc(F)cc2[nH]ncc12 |  | > 50 |  |  | > 50 | 
40 | O=C(Nc1ccc2c(c1)CNC2)c1cc(F)cc(-c2c[nH]c(=O)c(F)c2)c1 |  | > 50 |  |  | 25.4 | 
41 | N#CCc1cc(NC(=O)c2cc(F)cc3[nH]ncc23)cc2c1CNC2 |  | > 50 |  |  | > 50 | 
42 | C=Cc1cc2c(cc1NC(=O)c1cc(F)cc3[nH]ncc13)CNC2 |  | > 50 |  |  | > 50 | 
43 | O=C(Nc1ccc2c(c1)CNC2)c1ccc2c(C3=CCNCC3)csc2c1 |  | 47.1 |  |  | 18.8 | 
44 | NCc1ccc(-c2csc3cc(C(=O)Nc4ccc5c(c4)CNC5)ccc23)cc1 |  | 31.9 |  |  | 4.14 | 
45 | O=C(Nc1cc(Cl)cc(C(=O)Nc2ccc(-n3nn[nH]c3=O)cc2)c1)OCc1ccccc1 |  | > 50 |  |  | 31.8 | 
46 | O=C(NCC(F)F)[C@H](Nc1cnc2c(c1)CNC2)c1cc(Cl)cc(C2CC2)c1 |  | > 50 |  |  | > 50 | 
47 | O=C(Nc1cc2c(cc1C1CC1)CNC2)c1cc(F)cc2[nH]ncc12 |  | > 50 |  |  | 10.1 | 
48 | Cc1ccc(-c2nc3c(C(=O)Nc4ccc5c(c4)CNC5)cc(F)cc3[nH]2)cc1 |  | 1.42 |  |  | 3 | 
49 | NCc1csc2cc(C(=O)Nc3ccc4c(c3)CNC4)ccc12 |  | > 50 |  |  | 5.74 | 
50 | O=C(Nc1ccc2c(c1)CNC2)c1cc(Cl)cc2c1cnn2C[C@H]1CCCO1 |  | 26.9 |  |  | 37.1 | 

Row | SMILES | CC50 ([1]; vero c1008) | CC50 [2, 4] [µM] | CC50 ([2]; vero c1008) | CC50 [3] [µM] | CC50 [1, 5] [µM] | CC10 [3] [µM]
51 | O=C(Nc1ccc2c(c1)CNC2)c1cc(Cl)cc2[nH]c(-c3cc(C4CC4)[nH]n3)nc12 |  | 1.51 |  |  | 1.27 | 
52 | O=C(Nc1ccc2c(c1)CNC2)c1cccc2c(C3CNC3)n[nH]c12 |  | > 50 |  |  | > 50 | 
53 | O=C(Nc1ccc2c(c1)CN[C@H]2CCO)c1cc(F)cc2[nH]ncc12 |  | > 50 |  |  | 42.5 | 
54 | C=CC[C@H]1NCc2cc(NC(=O)c3cc(F)cc4c3CC(=O)N4)ccc21 |  | > 50 |  |  | > 50 | 
55 | Cc1cnccc1-c1cc(NC(=O)c2cc(F)cc3[nH]ncc23)cc2c1CNC2 |  | > 50 |  |  | > 50 | 
56 | O=C(Nc1ccc2c(c1)CNC2)c1cc(F)cc2[nH]c(-c3ccc(F)cc3)nc12 |  | 6.47 |  |  | 4.33 | 
57 | O=C(Nc1ccc2c(c1)CNC2)c1cccc2nc(O)ccc12 |  | 36.5 |  |  | > 50 | 
58 | Cc1cc(-c2cc(F)cc(C(=O)Nc3ccc4c(c3)CNC4)c2)[nH]n1 |  | > 50 |  |  | > 50 | 
59 | O=C(Nc1ccc2c(c1)CNC2)c1cc(Br)cc2c1nc1n2CCCC1 |  | 0.847 |  |  | 1.27 | 
60 | COc1cc(-c2cc(NC(=O)c3cc(F)cc4[nH]ncc34)cc3c2CNC3)ccn1 |  | > 50 |  |  | > 50 | 
61 | C[C@H]1C(=O)Nc2ccc(C(=O)Nc3ccc4c(c3)CNC4)cc21 |  | > 50 |  |  | > 50 | 
62 | CC(C)n1cc2c(C(=O)Nc3ccc4c(c3)CNC4)cc(Cl)cc2n1 |  | 11.8 |  |  | 22.7 | 
63 | O=C1Cc2cc(C(=O)Nc3ccc4c(c3)CNC4)ccc2N1 |  |  | 8.74 µM and > 50 µM |  | > 50 | 
64 | O=C(NCc1cccnc1)[C@H](Nc1ccc2c(c1)CNC2)c1cc(Cl)cc2[nH]ncc12 |  | 8.32 |  |  | > 50 | 
65 | N#Cc1cccc(-c2nc3c(C(=O)Nc4ccc5c(c4)CNC5)cc(Cl)cc3[nH]2)c1 |  | 6.67 |  |  | > 50 | 
66 | O=C(Nc1ccc2c(c1)CNC2)c1cccc2cn[nH]c12 |  | 47.8 |  |  | > 50 | 
67 | O=C(Nc1ccc2c(c1)CNC2)c1cc(Cl)cc2ccccc12 |  | 10.1 |  |  | 25.1 | 
68 | O=C(Nc1cc2c(c(C3=CCS(=O)(=O)CC3)c1)CNC2)c1cc(F)cc2[nH]ncc12 |  | > 50 |  |  | > 50 | 
69 | O=C(Nc1cc2c(c(-c3ccnnc3)c1)CNC2)c1cc(Cl)cc2[nH]ncc12 |  | > 50 |  |  | 25.8 | 
70 | O=C(Nc1ccc2c(c1)CNC2)c1cc(Cl)cc2c1cnn2C1CCC1 |  | 9.91 |  |  | 12.8 | 
71 | O=C(Nc1ccc2c(c1)CNC2)c1cc(Cl)cc2c1NCCC2 |  | 6.83 |  |  | 24.8 | 
72 | O=C(Nc1ccc2c(c1)CNC2)c1cc(Cl)cc(N2CCCC2)c1 |  | 5.83 |  |  | 13.2 | 
73 | O=C(Nc1cc2c(c(C3=CCOCC3)c1)CNC2)c1cc(F)cc2[nH]ncc12 |  | > 50 |  |  | > 50 | 
74 | N[C@H]1Cc2ccc(NC(=O)c3cccc4c3CC(=O)N4)cc2C1 |  | > 50 |  |  | > 50 | 
